# According to patent publication US20260053811A1, “METHODS OF TREATING HYPERTENSION IN OBESE SUBJECTS” (Mineralys Therapeutics, Inc., priority 2022, published 2026):
# Marks after values point to notes of the source that are not given here.
# What was measured:
# Format in all cases: in vivo, human
# hypertensive subjects [1] = experiment: Vital signs, physical examination, ECG parameters; conditions: Parts 1 and 2
# Excerpt: (§1) Safety endpoints of this study are: • (a) Incidence and severity of all spontaneously reported adverse events (AEs) • (b) Changes in vital signs (standing SBP, standing DBP, body temperature, heart rate, and respiratory rate) • (c) Changes in electrocardiogram parameters (including cardiac intervals: PR, QRS, QT, and corrected QT interval using Fridericia's formula) • (d) Changes in clinical laboratory assessments (hematology, chemistry, coagulation, and urinalysis) • (e) Change in office-measured SBP from Study Week 8 (end-of-treatment period to end of follow up (i.e. end of Study Week 12 for Part 1 and end of Study 10 for Part 2).
# hypertensive subjects [2] = experiment: Serum potassium; conditions: for Increase in potassium levels relative to baseline: Week 8; for Individuals with increased serum K+, Mild 5.6-6.0 mMol/L (number) / Individuals with increased serum K+, Mild 5.6-6.0 mMol/L (percent) / Individuals with increased serum K+, Moderate 6.1-6.5 mMol/L / Individuals with increased serum K+, Severe >6.5 mMol/L: during treatment
# Excerpt: as §1
# The Safety Analysis Set includes all enrolled subjects who received at least one dose of study treatment (MLS-101 or placebo). In analyses performed on the Safety Analysis Set, subjects will be analyzed according to their actual treatment received.
# hypertensive subjects [3] = experiment: Estimated glomerular filtration rate (eGFR, CKD-EPI equation); conditions: Part 1
# Experimental: In contrast, mean eGFR for the Placebo group was relatively stable throughout treatment, reaching a mean maximal reduction of −2.80 mL/min/1.73 m^2 at Week 2 (range: −0.83 mL/min/1.73 m^2 to −2.80 mL/min/1.73 m^2). Estimated glomerular filtration rate was estimated using the CKD-EPI equation.
structure (smiles),measurement,setting,value
CC(=O)N[C@H]1CC[C@H](NC(=O)CN2CCN(c3nncc(-c4ccc(C)cc4)n3)CC2)CC1 [Compound A HBr],"Vital signs, physical examination, ECG parameters",hypertensive subjects [1],no notable findings
same,Increase in potassium levels relative to baseline,"hypertensive subjects [2]; 25 mg BID, Part 1",0.341 mmol/L
same,Serum K+ Mean Change from Baseline to Wk 8,hypertensive subjects [2]; 50 mg QD (n = 28),+0.25 mmol/L
same,"Individuals with increased serum K+, Mild 5.6-6.0 mMol/L (number)",hypertensive subjects [2]; 50 mg QD (n = 28),1
same,"Individuals with increased serum K+, Mild 5.6-6.0 mMol/L (percent)",hypertensive subjects [2]; 50 mg QD (n = 28),(10.7%)
same,"Individuals with increased serum K+, Moderate 6.1-6.5 mMol/L",hypertensive subjects [2]; 50 mg QD (n = 28),0
same,Serum K+ Mean Change from Baseline to Wk 8,hypertensive subjects [2]; 100 mg QD (n = 61),+0.29 mmol/L
same,"Individuals with increased serum K+, Mild 5.6-6.0 mMol/L (number)",hypertensive subjects [2]; 100 mg QD (n = 61),8
same,"Individuals with increased serum K+, Mild 5.6-6.0 mMol/L (percent)",hypertensive subjects [2]; 100 mg QD (n = 61),(13.1%)
same,"Individuals with increased serum K+, Moderate 6.1-6.5 mMol/L",hypertensive subjects [2]; 100 mg QD (n = 61),1 (1.6%)
same,"Individuals with increased serum K+, Severe >6.5 mMol/L",hypertensive subjects [2]; 100 mg QD (n = 61),1 (1.6%)
same,Number of individuals with verified or multiple increased serum K+ 5.2-5.5 mMol/L,"hypertensive subjects [2]; 100 mg QD, Part 1",5
same,Number of individuals with verified or multiple increased serum K+ 5.6-6.0 mMol/L,"hypertensive subjects [2]; 100 mg QD, Part 1",3
same,Number of individuals with verified or multiple increased serum K+ 6.1-6.5 mMol/L,"hypertensive subjects [2]; 100 mg QD, Part 1",0
same,Percent of individuals with verified or multiple increased serum K+ 5.2-5.5 mMol/L,"hypertensive subjects [2]; 100 mg QD, Part 1",(18.5%)
same,Percent of individuals with verified or multiple increased serum K+ 5.6-6.0 mMol/L,"hypertensive subjects [2]; 100 mg QD, Part 1",(10.7%)
same,Number of individuals with increased serum K+ >6.5 mMol/L,"hypertensive subjects [2]; 100 mg QD, Part 1, isolated incident not verified by repeat measurement",1*
same,Number of individuals with verified or multiple increased serum K+ 5.2-5.5 mMol/L,"hypertensive subjects [2]; 100 mg QD, Part 2",1
same,Number of individuals with verified or multiple increased serum K+ 5.6-6.0 mMol/L,"hypertensive subjects [2]; 100 mg QD, Part 2",0
same,Number of individuals with verified or multiple increased serum K+ 6.1-6.5 mMol/L,"hypertensive subjects [2]; 100 mg QD, Part 2",0
same,Number of individuals with verified or multiple increased serum K+ >6.5 mMol/L,"hypertensive subjects [2]; 100 mg QD, Part 2",0
same,Percent of individuals with verified or multiple increased serum K+ 5.2-5.5 mMol/L,"hypertensive subjects [2]; 100 mg QD, Part 2",(4%)
same,Increase in potassium levels relative to baseline,"hypertensive subjects [2]; 100 mg QD, Part 2",0.208 mmol/L
same,Number of individuals with verified or multiple increased serum K+ 5.2-5.5 mMol/L,"hypertensive subjects [2]; 100 mg QD, Pooled",6
same,Number of individuals with verified or multiple increased serum K+ 5.6-6.0 mMol/L,"hypertensive subjects [2]; 100 mg QD, Pooled",3
same,Number of individuals with verified or multiple increased serum K+ 6.1-6.5 mMol/L,"hypertensive subjects [2]; 100 mg QD, Pooled",0
same,Number of individuals with verified or multiple increased serum K+ >6.5 mMol/L,"hypertensive subjects [2]; 100 mg QD, Pooled",0
same,Percent of individuals with verified or multiple increased serum K+ 5.2-5.5 mMol/L,"hypertensive subjects [2]; 100 mg QD, Pooled",(10.3%)
same,Percent of individuals with verified or multiple increased serum K+ 5.6-6.0 mMol/L,"hypertensive subjects [2]; 100 mg QD, Pooled",(5.2%)
same,"Individuals with increased serum K+, Mild 5.6-6.0 mMol/L (number)",hypertensive subjects [2]; All Active (n = 163),16
same,"Individuals with increased serum K+, Mild 5.6-6.0 mMol/L (percent)",hypertensive subjects [2]; All Active (n = 163),(9.8%)
same,"Individuals with increased serum K+, Moderate 6.1-6.5 mMol/L",hypertensive subjects [2]; All Active (n = 163),4 (2.5%)
same,"Individuals with increased serum K+, Severe >6.5 mMol/L",hypertensive subjects [2]; All Active (n = 163),2*
same,"Change in group mean serum potassium (K+), Mean",hypertensive subjects [2]; Part 1 (N 26),+0.50 mMol/L
same,"Change in group mean serum potassium (K+), Mean","hypertensive subjects [2]; Part 1, N 26*",+0.50 mMol/L
same,"Change in group mean serum potassium (K+), Mean",hypertensive subjects [2]; Part 2 (N 31),+0.23 mMol/L
same,"Change in group mean serum potassium (K+), Mean","hypertensive subjects [2]; Part 2, N 31",+0.23 mMol/L
same,Subjects with transient elevated serum potassium greater than 6.0 mmol/L,"hypertensive subjects [2]; Parts 1 and 2, listed as lorundrostat",seven
same,"Change in group mean serum potassium (K+), Mean",hypertensive subjects [2]; Pooled (N 57),+0.35 mMol/L
same,"Change in group mean serum potassium (K+), Mean","hypertensive subjects [2]; Pooled, N 57",+0.35 mMol/L
same,Serum potassium levels compared with placebo,"hypertensive subjects [2]; active treatment cohorts, Parts 1 and 2",increased
same,eGFR mean maximum decline relative to baseline,"hypertensive subjects [3]; 100 mg QD, Week 2",10.91 mL/min/1.73 m^2
same,"Estimated Glomerular Filtration Rate, Mean (SD) Change from Baseline","hypertensive subjects [3]; Week 1, 12.5 mg BID",−2.25 (8.42) mL/min/1.73 m^2
same,"Estimated Glomerular Filtration Rate, Mean (SD) Observed","hypertensive subjects [3]; Week 1, 12.5 mg BID",79.45 (15.19) mL/min/1.73 m^2
same,"Estimated Glomerular Filtration Rate, Mean (SD) Change from Baseline","hypertensive subjects [3]; Week 1, 12.5 mg QD",−4.30 (7.14) mL/min/1.73 m^2
same,"Estimated Glomerular Filtration Rate, Mean (SD) Observed","hypertensive subjects [3]; Week 1, 12.5 mg QD",73.57 (20.33) mL/min/1.73 m^2
same,"Estimated Glomerular Filtration Rate, Mean (SD) Change from Baseline","hypertensive subjects [3]; Week 1, 25 mg BID",−6.85 (8.88) mL/min/1.73 m^2
same,"Estimated Glomerular Filtration Rate, Mean (SD) Observed","hypertensive subjects [3]; Week 1, 25 mg BID",74.00 (13.13) mL/min/1.73 m^2
same,"Estimated Glomerular Filtration Rate, Mean (SD) Change from Baseline","hypertensive subjects [3]; Week 1, 50 mg QD",−2.96 (8.52) mL/min/1.73 m^2
same,"Estimated Glomerular Filtration Rate, Mean (SD) Observed","hypertensive subjects [3]; Week 1, 50 mg QD",74.21 (16.88) mL/min/1.73 m^2
same,"Estimated Glomerular Filtration Rate, Mean (SD) Change from Baseline","hypertensive subjects [3]; Week 1, 100 mg QD",−6.80 (10.03) mL/min/1.73 m^2
same,"Estimated Glomerular Filtration Rate, Mean (SD) Observed","hypertensive subjects [3]; Week 1, 100 mg QD",70.81 (17.66) mL/min/1.73 m^2
same,"Estimated Glomerular Filtration Rate, Mean (SD) Change from Baseline","hypertensive subjects [3]; Week 2, 12.5 mg BID",−3.69 (6.46) mL/min/1.73 m^2
same,"Estimated Glomerular Filtration Rate, Mean (SD) Observed","hypertensive subjects [3]; Week 2, 12.5 mg BID",78.86 (18.56) mL/min/1.73 m^2
same,"Estimated Glomerular Filtration Rate, Mean (SD) Change from Baseline","hypertensive subjects [3]; Week 2, 12.5 mg QD",−4.87 (5.03) mL/min/1.73 m^2
same,"Estimated Glomerular Filtration Rate, Mean (SD) Observed","hypertensive subjects [3]; Week 2, 12.5 mg QD",73.00 (20.81) mL/min/1.73 m^2
same,"Estimated Glomerular Filtration Rate, Mean (SD) Change from Baseline","hypertensive subjects [3]; Week 2, 25 mg BID",−5.42 (10.01) mL/min/1.73 m^2
same,"Estimated Glomerular Filtration Rate, Mean (SD) Observed","hypertensive subjects [3]; Week 2, 25 mg BID",75.43 (15.32) mL/min/1.73 m^2
same,"Estimated Glomerular Filtration Rate, Mean (SD) Change from Baseline","hypertensive subjects [3]; Week 2, 50 mg QD",−4.32 (9.06) mL/min/1.73 m^2
same,"Estimated Glomerular Filtration Rate, Mean (SD) Observed","hypertensive subjects [3]; Week 2, 50 mg QD",72.86 (16.55) mL/min/1.73 m^2
same,"Estimated Glomerular Filtration Rate, Mean (SD) Change from Baseline","hypertensive subjects [3]; Week 2, 100 mg QD",−10.91 (8.57) mL/min/1.73 m^2
same,"Estimated Glomerular Filtration Rate, Mean (SD) Observed","hypertensive subjects [3]; Week 2, 100 mg QD",65.56 (17.66) mL/min/1.73 m^2
same,"Estimated Glomerular Filtration Rate, Mean (SD) Change from Baseline","hypertensive subjects [3]; Week 3, 12.5 mg BID",−5.17 (8.54) mL/min/1.73 m^2
same,"Estimated Glomerular Filtration Rate, Mean (SD) Observed","hypertensive subjects [3]; Week 3, 12.5 mg BID",77.38 (16.68) mL/min/1.73 m^2
same,"Estimated Glomerular Filtration Rate, Mean (SD) Change from Baseline","hypertensive subjects [3]; Week 3, 12.5 mg QD",−2.05 (6.43) mL/min/1.73 m^2
same,"Estimated Glomerular Filtration Rate, Mean (SD) Observed","hypertensive subjects [3]; Week 3, 12.5 mg QD",77.21 (20.38) mL/min/1.73 m^2
same,"Estimated Glomerular Filtration Rate, Mean (SD) Change from Baseline","hypertensive subjects [3]; Week 3, 25 mg BID",−5.90 (8.63) mL/min/1.73 m^2
same,"Estimated Glomerular Filtration Rate, Mean (SD) Observed","hypertensive subjects [3]; Week 3, 25 mg BID",75.07 (11.95) mL/min/1.73 m^2
same,"Estimated Glomerular Filtration Rate, Mean (SD) Change from Baseline","hypertensive subjects [3]; Week 3, 50 mg QD",−2.35 (8.51) mL/min/1.73 m^2
same,"Estimated Glomerular Filtration Rate, Mean (SD) Observed","hypertensive subjects [3]; Week 3, 50 mg QD",74.81 (15.62) mL/min/1.73 m^2
